From paper PMC13379085 (PLOS Neglected Tropical Diseases, 2026)

Assays:
lysozyme = biological target: T1, lysozyme (Homo sapiens, UniProt P61626); test: Thermal proteome profiling (TPP) in Leishmania infected macrophage lysate; type: binding; design: endogenous in cells; host or cells: PMA-differentiated THP-1 macrophages infected with L. mexicana (lysate); conditions: 100 µM 197 in L. mexicana infected THP-1 lysate
T1 sequence (P61626 19-148): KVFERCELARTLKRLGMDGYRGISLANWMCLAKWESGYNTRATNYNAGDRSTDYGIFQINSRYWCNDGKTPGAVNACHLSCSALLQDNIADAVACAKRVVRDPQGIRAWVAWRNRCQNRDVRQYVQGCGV
Protocol: To generate cell lysate, ten million THP-1 cells were plated overnight in a 10 cm dish, then differentiated with 150 nM phorbol 12-myristate 13-acetate (PMA) for 72 hours. The resulting macrophages were infected with L. mexicana promastigotes at a multiplicity of infection of 10 and incubated for 18 hours. After infection, cells were washed three times with PBS to remove extracellular promastigotes. Cells were then collected by scraping and pelleted with centrifugation. The cell pellet was resuspended in phosphate buffered saline and subjected to five freeze-thaw cycles. Samples were centrifuged 14,000g x 10 minutes to remove cellular debris. Protein concentration of supernatant was determined by BCA assay and cell lysate was stored at -80 ° C until further use.
The cell lysate was divided into two portions. One portion was spiked with 197 in DMSO to generate the ‘with ligand’ sample; and the other portion was spiked with DMSO to generate the ‘without ligand’ sample. The final concentration of 197 in the ‘with ligand’ sample was 100 µM, and both the without and with ligand samples contained 1% DMSO. The with and without samples were each subjected five replicate one-pot TPP analyses like that previously described. […]

[1] = test system: Extracellular L. mexicana promastigotes; test: Resazurin viability assay of extracellular L. mexicana promastigotes; type: cell-based, Leishmania mexicana
Protocol: The effect of compounds on extracellular promastigotes was evaluated using a resazurin-based assay as described previously. In short, late log phase Leishmania promastigotes were seeded in a 96 well plate at 1 x 10^5 parasites per well and treated with drugs (0.5 – 200 µM) for 72 hours at 25°C. Ten microliters of Resazurin (0.02% w/v) were added to the treated parasites to achieve a final concentration of 0.002% w/v and incubated for 24 hours. Viability of the promastigotes was assessed by fluorescence (excitation 544 nm, emission 590 nm, SpectraMax M2, Molecular Devices).

In the case of O=C(CNCc1cccc(F)c1)Nc1ccc(-n2cc(C(F)(F)F)nc2-c2ccc(-c3ccc(C(F)(F)F)cc3)cc2)cc1 [Compound 197], the “TPP z-score for lysozyme” value (lysozyme) is reported as 4.32, the “effect on L. mexicana extracellular promastigote viability” value [1] is reported as “no effect” and the MIC50 ([1]; Leishmania mexicana, 72-hour incubation) is reported as over 200 µM.
